Data from patent US20040033958A1, “N-alkylglycine trimeres capable of blocking the response to chemical substances, heat stimuli or mediators of neuronal receptor inflammation and compositions containing said trimeres” (priority 2000, published 2004).

What was measured:
VR1 nociceptor = VR1 nociceptor (Rattus norvegicus, UniProt O35433); experiment: Blocking of capsaicin-activated ionic current in X. laevis ovocites expressing the VR1 nociceptor (two-microelectrode voltage clamp); type: cell-based; details: activated by capsaicin 20 μM, -80 mV, read-out: concentration that inhibited half the VR1 nociceptor response (IC50)
[1] = test system: irritation produced by topical capsaicin in the eye; experiment: Ocular pain model: scratches after topical capsaicin in the eye of a mouse; type: in vivo; details: scratches during 1 minute, second capsaicin application with compound vs first without
Description: An investigation was performed on the attenuation of the N-alkylglycine trimeres indicated in Table 1, on the irritation produced by the topical application of capsaicin in the eyes of animals, an ocular pain model (22). The experimental paradigm compares the number of scratches after the topical administration of capsaicin at 0,01% in the eye of a mouse, in the absence and presence of the N-alkylglycine trimeres. After the administration of capsaicin, the number of times the mouse scratches its treated eye during 1 minute is counted. Subsequently, the affected eye is extensively rinsed with saline solution and 15 minutes after application, the compound to be tested is administered. After 5 minutes incubation, a 0,1% capsaicin solution containing the compound to be tested is administered. The number of times the animal scratches its eye during 1 minute is immediately counted. The analgesic capacity is obtained by comparing the number of scratches in the first application of capsaicin (without the compound to be tested) and the second application of the irritant (in the presence of the compound to be tested). A decrease of scratches in the second application of capsaicin is indicative of an analgesic activity of the N-alkylglycine trimere tested.

[2] = molecular target: NMDA receptor (NR1 and NR2A subunities) (Homo sapiens, UniProt Q05586+Q12879); experiment: Blocking of L-glutamate/glycine-activated ionic current in X. laevis ovocites expressing the NMDA receptor (two-microelectrode voltage clamp); type: cell-based; details: activated by L-glutamate/glycine 100 μM/20 μM, -80 mV, read-out: concentration that inhibited half the NMDA receptor response (IC50)
From the text: In order to evaluate the biological activity of the N-alkylglycine trimeres obtained in Example 1.1 on type NMDA glutamatergic receptors, a test was developed that evaluated the efficiency and power of said compounds blocking the ionic current activated by X. laevis ovocite agonist that express the type NMDA receptor, the […].
The heterologeous expression of receptors in X. laevis ovocites may be carried out according to the procedure described by Ferrer-Montiel and Montal (19). Briefly, the X. laevis ovocites of adult frogs are gathered, manipulated and injected with cRNA that codes the NR1 and NR2A subunities of the NMDA receptor (5, 20). The ionic currents activated by L-glutamate agonist in the presence of the glycine coagonist are recorded with the constant voltage maintenance technique with two microelectrodes (two-microelectrode voltage clamp) (19, 20). The ovocites that express the receptor are transferred to the recording chamber and perfunded using an 8-output perfusion system. The agonist and the coagonist, both in the absence and in the presence of the N-alkylglcycine trimeres to be tested, are dissolved in a Ringer buffer (Hepes 10 mM pH 7,4 NaCl 100 mM, Ba Cl2, 2,0 mM, KCl 3,0 mM) supplemented with 100 μM fluphenamic acid (20). This buffered solution is used to minimize the contribution of the chloride endogenous ionic channel activated by calcium to the glutamatergic receptor ionic current (19, 20). The transmembrane voltage is kept constant at −80 mV and the ionic currents are activated by applying pulses of the L-glutamate/glycine solution (100 μM /20 μM) in the presence or absence of growing concentrations of the N-alkylglycine trimeres to be tested. The inhibiting activity is detected by measuring the ionic current activated by the agonist in the presence and absence of the N-alkylglycine trimeres.
The power and efficiency of the N-alkylglycine trimeres inhibiting activity is determined by obtaining the dose-response curves. […]

Sequence of VR1 nociceptor (O35433 whole entry): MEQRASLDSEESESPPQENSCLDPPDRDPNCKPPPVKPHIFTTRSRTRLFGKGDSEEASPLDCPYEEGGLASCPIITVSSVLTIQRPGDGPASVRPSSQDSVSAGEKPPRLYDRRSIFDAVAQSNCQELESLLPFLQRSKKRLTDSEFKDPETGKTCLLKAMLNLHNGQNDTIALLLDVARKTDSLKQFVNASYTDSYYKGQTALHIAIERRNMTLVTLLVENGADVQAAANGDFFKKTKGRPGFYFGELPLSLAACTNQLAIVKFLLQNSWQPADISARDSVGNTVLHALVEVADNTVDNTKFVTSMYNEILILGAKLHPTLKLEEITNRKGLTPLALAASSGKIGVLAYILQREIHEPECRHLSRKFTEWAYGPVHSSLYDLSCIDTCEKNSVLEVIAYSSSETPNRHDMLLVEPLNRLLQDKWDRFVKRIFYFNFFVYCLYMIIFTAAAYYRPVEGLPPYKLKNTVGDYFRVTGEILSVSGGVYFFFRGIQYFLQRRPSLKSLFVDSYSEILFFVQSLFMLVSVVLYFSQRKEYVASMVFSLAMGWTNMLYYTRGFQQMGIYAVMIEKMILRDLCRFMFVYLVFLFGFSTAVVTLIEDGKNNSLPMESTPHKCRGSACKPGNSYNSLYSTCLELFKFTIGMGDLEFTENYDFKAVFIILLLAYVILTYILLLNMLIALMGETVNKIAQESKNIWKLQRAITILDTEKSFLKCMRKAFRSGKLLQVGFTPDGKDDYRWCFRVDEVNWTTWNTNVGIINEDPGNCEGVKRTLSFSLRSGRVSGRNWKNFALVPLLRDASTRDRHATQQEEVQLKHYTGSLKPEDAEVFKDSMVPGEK
Sequence of NMDA receptor (NR1 and NR2A subunities) (Q12879 23-1464, other chains not shown): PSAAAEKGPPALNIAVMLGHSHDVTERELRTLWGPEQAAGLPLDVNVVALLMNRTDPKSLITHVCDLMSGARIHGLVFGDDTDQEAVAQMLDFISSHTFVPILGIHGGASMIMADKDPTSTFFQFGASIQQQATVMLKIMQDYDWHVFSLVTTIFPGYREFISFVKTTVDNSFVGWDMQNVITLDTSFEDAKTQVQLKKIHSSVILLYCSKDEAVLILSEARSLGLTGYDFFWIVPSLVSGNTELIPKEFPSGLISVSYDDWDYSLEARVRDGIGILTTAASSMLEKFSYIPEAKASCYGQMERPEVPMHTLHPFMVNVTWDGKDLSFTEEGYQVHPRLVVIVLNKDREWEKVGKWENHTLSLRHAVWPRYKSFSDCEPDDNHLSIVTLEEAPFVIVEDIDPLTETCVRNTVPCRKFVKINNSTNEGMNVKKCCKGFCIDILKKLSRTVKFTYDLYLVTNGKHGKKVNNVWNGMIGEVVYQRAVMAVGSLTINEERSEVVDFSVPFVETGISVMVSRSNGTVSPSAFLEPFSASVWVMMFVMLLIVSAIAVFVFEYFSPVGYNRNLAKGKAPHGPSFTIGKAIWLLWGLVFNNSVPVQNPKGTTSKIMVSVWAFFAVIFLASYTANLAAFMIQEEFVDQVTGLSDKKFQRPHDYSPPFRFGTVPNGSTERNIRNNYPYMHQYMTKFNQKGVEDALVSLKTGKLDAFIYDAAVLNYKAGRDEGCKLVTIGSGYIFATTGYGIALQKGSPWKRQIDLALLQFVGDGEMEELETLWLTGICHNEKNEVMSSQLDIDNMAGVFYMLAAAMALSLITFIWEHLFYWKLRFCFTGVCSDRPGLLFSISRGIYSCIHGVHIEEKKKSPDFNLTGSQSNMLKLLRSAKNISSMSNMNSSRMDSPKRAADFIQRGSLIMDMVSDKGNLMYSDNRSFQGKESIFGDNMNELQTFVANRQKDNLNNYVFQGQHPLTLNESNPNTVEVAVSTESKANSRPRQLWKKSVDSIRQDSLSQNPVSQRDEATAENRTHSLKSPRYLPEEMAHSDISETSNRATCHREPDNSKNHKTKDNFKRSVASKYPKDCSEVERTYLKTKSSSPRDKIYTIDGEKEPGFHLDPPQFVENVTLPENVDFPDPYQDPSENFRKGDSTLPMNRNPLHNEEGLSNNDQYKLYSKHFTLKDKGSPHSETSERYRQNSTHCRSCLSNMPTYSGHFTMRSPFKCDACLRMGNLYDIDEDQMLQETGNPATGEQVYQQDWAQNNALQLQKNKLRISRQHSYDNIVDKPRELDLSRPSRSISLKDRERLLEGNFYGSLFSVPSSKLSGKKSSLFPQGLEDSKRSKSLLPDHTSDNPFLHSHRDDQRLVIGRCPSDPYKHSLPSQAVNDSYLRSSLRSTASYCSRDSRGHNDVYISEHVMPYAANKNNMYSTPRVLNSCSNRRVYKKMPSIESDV

Row | IC50 (VR1 nociceptor) | IC50 [2] | SMILES | attenuation of the ocular irritation produced by capsaicin [1]
1 |  | ~2 µM | CCN(CC)CCCN(CC(=O)N(CCc1ccccn1)CC(N)=O)C(=O)CNCCC(c1ccccc1)c1ccccc1 [compound [10]] | 
2 |  | ~10 µM | CCN(CC)CCCN(CC(=O)N(CCn1ccnc1)CC(N)=O)C(=O)CNCCC(c1ccccc1)c1ccccc1 [compound [11]] | 

The next lines start with the compound.

Row | SMILES | IC50 (VR1 nociceptor) | IC50 [2] | attenuation of the ocular irritation produced by capsaicin [1]
3 | CN1CCCC1CCNCC(=O)N(CCc1ccc(Cl)cc1Cl)CC(=O)N(CCc1ccc(Cl)cc1Cl)CC(N)=O (racemic) [compound [4], [N-[(R,S)-2-[2-(N-methyl)pyrrolidinyl]ethyl]glycyl]-[N-(2,4-dichlorophenethyl)glycyl]-N-(2,4-dichlorophenethyl)glycinamide] | ~1 µM |  | approximately 40%
4 | CCN(CC)CCCNCC(=O)N(CCc1ccc(Cl)cc1Cl)CC(=O)N(CCC(C)C)CC(N)=O [compound [7], [N-[3-(N,N-diethylamine)propyl]glycyl]-[N-(2,4-dichlorophenethyl)glycyl]-N-(3-methylbutyl)glycinamide] | ~30 µM |  | 
5 | CCN(CC)CCCNCC(=O)N(CCc1ccc(Cl)cc1Cl)CC(=O)N(CCc1ccc(Cl)cc1Cl)CC(N)=O [compound [8], [N-[3-(N,N-diethylamine)propyl]glycyl]-[N-(2,4-dichlorophenethyl)glycyl]-N-(2,4-dichlorophenethyl)glycinamide] | ~2 µM |  | approximately 20%
6 | CCN(CC)CCCN(CC(=O)N(CCc1ccc(Cl)cc1Cl)CC(N)=O)C(=O)CNCCC(c1ccccc1)c1ccccc1 [compound [9]] |  | 1 µM | 
